The values that follow come from the NIST ThermoML archive (doi:10.1016/j.fluid.2016.02.004).

± gives the expanded uncertainty stated by the source.

A short description of the data set: activity coefficient (dimensionless); of the first substance listed, at infinite dilution; xn = mol fraction of the nth substance listed. The conditions noted are these: Liquid, Chromatography, x1 = 0.

Turning to `C1CCCCC1` [cyclohexane] + CCCCn1cc[n+](C)c1.N#CN=C=[N-], the activity coefficient is, setting by setting: (318.15 K) 25.8 ± 1.8; (328.15 K) 25 ± 1.7; (338.15 K) 24.3 ± 1.7; (348.15 K) 23.7 ± 1.6; (358.15 K) 23.1 ± 1.6; (368.15 K) 22.6 ± 1.5.

Take `C1=CCCCC1` [cyclohexene] + CCCCn1cc[n+](C)c1.N#CN=C=[N-]: the activity coefficient is, setting by setting: (318.15 K) 11.4 ± 0.8; (328.15 K) 11.4 ± 0.8; (338.15 K) 11.3 ± 0.8; (348.15 K) 11.3 ± 0.8; (358.15 K) 11.3 ± 0.8; (368.15 K) 11.3 ± 0.8.

For the compound `C1CCCCCCC1` [cyclooctane] + CCCCn1cc[n+](C)c1.N#CN=C=[N-], the activity coefficient amounted to 42.4 ± 2.9 (318.15 K); 40.4 ± 2.8 (328.15 K); 38.6 ± 2.6 (338.15 K); 37.1 ± 2.5 (348.15 K); 35.8 ± 2.4 (358.15 K); 34.5 ± 2.4 (368.15 K).

As to `C1CCCC1` [cyclopentane] + CCCCn1cc[n+](C)c1.N#CN=C=[N-], the activity coefficient (318.15 K) amounted to 17.4 ± 1.2; the activity coefficient (328.15 K) is 16.9 ± 1.2; the activity coefficient (338.15 K) was 16.3 ± 1.1; the activity coefficient (348.15 K) was 15.9 ± 1.1; the activity coefficient (358.15 K) amounted to 15.5 ± 1.1; the activity coefficient (368.15 K) came out at 15.1 ± 1.

With `CCCCCCCCCC` [decane] + CCCCn1cc[n+](C)c1.N#CN=C=[N-], the activity coefficient is, setting by setting: (318.15 K) 314 ± 22; (328.15 K) 285 ± 20; (338.15 K) 260 ± 18; (348.15 K) 239 ± 16; (358.15 K) 221 ± 15; (368.15 K) 205 ± 14.

For the compound `CCOCC` [diethyl ether] + CCCCn1cc[n+](C)c1.N#CN=C=[N-], the activity coefficient is, setting by setting: (318.15 K) 6.88 ± 0.47; (328.15 K) 7.11 ± 0.48; (338.15 K) 7.32 ± 0.5; (348.15 K) 7.53 ± 0.51; (358.15 K) 7.74 ± 0.53; (368.15 K) 7.95 ± 0.54.

As for `CC(C)OC(C)C` [diisopropyl ether] + CCCCn1cc[n+](C)c1.N#CN=C=[N-], the activity coefficient is, setting by setting: (318.15 K) 20.6 ± 1.4; (328.15 K) 20.9 ± 1.4; (338.15 K) 21.2 ± 1.4; (348.15 K) 21.5 ± 1.5; (358.15 K) 21.8 ± 1.5; (368.15 K) 22 ± 1.5.

As for `CCCOCCC` [dipropyl ether] + CCCCn1cc[n+](C)c1.N#CN=C=[N-], the activity coefficient (318.15 K) turned out to be 20.4 ± 1.4; the activity coefficient (328.15 K) was found to be 20.5 ± 1.4; the activity coefficient (338.15 K) is 20.5 ± 1.4; the activity coefficient (348.15 K) was found to be 20.5 ± 1.4; the activity coefficient (358.15 K) came to 20.5 ± 1.4; the activity coefficient (368.15 K) stood at 20.6 ± 1.4.

As for `CCO` [ethanol] + CCCCn1cc[n+](C)c1.N#CN=C=[N-], the activity coefficient was determined as 0.65 ± 0.044 (318.15 K); 0.658 ± 0.045 (328.15 K); 0.669 ± 0.045 (338.15 K); 0.677 ± 0.046 (348.15 K); 0.686 ± 0.046 (358.15 K); 0.694 ± 0.047 (368.15 K).

Take `CCOC(C)=O` [ethyl acetate] + CCCCn1cc[n+](C)c1.N#CN=C=[N-]: the activity coefficient by setting is: (318.15 K) 2.57 ± 0.17; (328.15 K) 2.68 ± 0.18; (338.15 K) 2.79 ± 0.19; (348.15 K) 2.91 ± 0.2; (358.15 K) 3 ± 0.2; (368.15 K) 3.11 ± 0.21.

With `CCc1ccccc1` [ethylbenzene] + CCCCn1cc[n+](C)c1.N#CN=C=[N-], the activity coefficient stood at 4.78 ± 0.33 (318.15 K); 4.89 ± 0.33 (328.15 K); 5.07 ± 0.35 (338.15 K); 5.19 ± 0.35 (348.15 K); 5.33 ± 0.36 (358.15 K); 5.55 ± 0.38 (368.15 K).

Regarding `CCCCCCC` [heptane] + CCCCn1cc[n+](C)c1.N#CN=C=[N-], the activity coefficient worked out at 91 ± 6.2 (318.15 K); 87.2 ± 6 (328.15 K); 83.9 ± 5.8 (338.15 K); 80.6 ± 5.5 (348.15 K); 77.8 ± 5.3 (358.15 K); 75.3 ± 5.2 (368.15 K).

In the case of `C=CCCCC` [hex-1-ene] + CCCCn1cc[n+](C)c1.N#CN=C=[N-], the activity coefficient worked out at 26.4 ± 1.8 (318.15 K); 25.9 ± 1.8 (328.15 K); 25.5 ± 1.7 (338.15 K); 25.1 ± 1.7 (348.15 K); 24.7 ± 1.7 (358.15 K); 24.4 ± 1.7 (368.15 K).

As to `CCCCCC` [hexane] + CCCCn1cc[n+](C)c1.N#CN=C=[N-], the activity coefficient by setting is: (318.15 K) 61.6 ± 4.2; (328.15 K) 59.3 ± 4.1; (338.15 K) 57.1 ± 3.9; (348.15 K) 55.2 ± 3.8; (358.15 K) 53.4 ± 3.7; (368.15 K) 51.7 ± 3.5.

As for `CC(C)c1ccccc1` [isopropylbenzene] + CCCCn1cc[n+](C)c1.N#CN=C=[N-], the activity coefficient worked out at 7.3 ± 0.5 (318.15 K); 7.52 ± 0.51 (328.15 K); 7.72 ± 0.53 (338.15 K); 7.93 ± 0.54 (348.15 K); 8.11 ± 0.55 (358.15 K); 8.3 ± 0.6 (368.15 K).

On to `CO` [methanol] + CCCCn1cc[n+](C)c1.N#CN=C=[N-], for which the activity coefficient is, setting by setting: (318.15 K) 0.399 ± 0.034; (328.15 K) 0.408 ± 0.034; (338.15 K) 0.42 ± 0.035; (348.15 K) 0.431 ± 0.035; (358.15 K) 0.442 ± 0.036; (368.15 K) 0.46 ± 0.036.

Regarding `CCCC(=O)OC` [methyl butanoate] + CCCCn1cc[n+](C)c1.N#CN=C=[N-], the activity coefficient (318.15 K) is 3.46 ± 0.24; the activity coefficient (328.15 K) stood at 3.61 ± 0.25; the activity coefficient (338.15 K) was 3.75 ± 0.26; the activity coefficient (348.15 K) worked out at 3.9 ± 0.27; the activity coefficient (358.15 K) was 4.03 ± 0.27; the activity coefficient (368.15 K) stood at 4.17 ± 0.28.

Turning to `COC(C)=O` [methyl ethanoate] + CCCCn1cc[n+](C)c1.N#CN=C=[N-], the activity coefficient is, setting by setting: (318.15 K) 1.61 ± 0.11; (328.15 K) 1.71 ± 0.11; (338.15 K) 1.81 ± 0.12; (348.15 K) 1.9 ± 0.13; (358.15 K) 1.99 ± 0.14; (368.15 K) 2.09 ± 0.14.

With `CCC(=O)OC` [methyl propanoate] + CCCCn1cc[n+](C)c1.N#CN=C=[N-], the activity coefficient by setting is: (318.15 K) 2.36 ± 0.16; (328.15 K) 2.47 ± 0.17; (338.15 K) 2.59 ± 0.18; (348.15 K) 2.7 ± 0.18; (358.15 K) 2.81 ± 0.19; (368.15 K) 2.92 ± 0.2.

Regarding `CC1CCCCC1` [methylcyclohexane] + CCCCn1cc[n+](C)c1.N#CN=C=[N-], the activity coefficient by setting is: (318.15 K) 40.2 ± 2.8; (328.15 K) 38.3 ± 2.6; (338.15 K) 36.5 ± 2.5; (348.15 K) 35 ± 2.4; (358.15 K) 33.6 ± 2.3; (368.15 K) 32.4 ± 2.2.

As for `CCCCCCCCC` [nonane] + CCCCn1cc[n+](C)c1.N#CN=C=[N-], the activity coefficient (318.15 K) was 207 ± 14; the activity coefficient (328.15 K) is 193 ± 13; the activity coefficient (338.15 K) was found to be 181 ± 12; the activity coefficient (348.15 K) was 171 ± 12; the activity coefficient (358.15 K) came to 162 ± 11; the activity coefficient (368.15 K) came out at 153 ± 11.

Consider `C=CCCCCCC` [oct-1-ene] + CCCCn1cc[n+](C)c1.N#CN=C=[N-], for which the activity coefficient by setting is: (318.15 K) 60.1 ± 4.1; (328.15 K) 58.9 ± 4; (338.15 K) 58 ± 4; (348.15 K) 57 ± 3.9; (358.15 K) 56.2 ± 3.8; (368.15 K) 55.5 ± 3.8.

On to `CCCCCCCC` [octane] + CCCCn1cc[n+](C)c1.N#CN=C=[N-], for which the activity coefficient runs as follows: (318.15 K) 137 ± 9; (328.15 K) 129 ± 9; (338.15 K) 123 ± 8; (348.15 K) 116 ± 8; (358.15 K) 111 ± 8; (368.15 K) 106 ± 7.

As for `CCCC(C)=O` [pentan-2-one] + CCCCn1cc[n+](C)c1.N#CN=C=[N-], the activity coefficient was found to be 2 ± 0.14 (318.15 K); 2.11 ± 0.14 (328.15 K); 2.22 ± 0.15 (338.15 K); 2.32 ± 0.16 (348.15 K); 2.43 ± 0.17 (358.15 K); 2.53 ± 0.17 (368.15 K).

In the case of `CCC(=O)CC` [pentan-3-one] + CCCCn1cc[n+](C)c1.N#CN=C=[N-], the activity coefficient runs as follows: (318.15 K) 2.04 ± 0.14; (328.15 K) 2.16 ± 0.15; (338.15 K) 2.27 ± 0.15; (348.15 K) 2.38 ± 0.16; (358.15 K) 2.49 ± 0.17; (368.15 K) 2.6 ± 0.18.

Regarding `CCCCC` [pentane] + CCCCn1cc[n+](C)c1.N#CN=C=[N-], the activity coefficient is, setting by setting: (318.15 K) 41.7 ± 2.9; (328.15 K) 40.1 ± 2.7; (338.15 K) 38.6 ± 2.6; (348.15 K) 37.3 ± 2.6; (358.15 K) 36.1 ± 2.5; (368.15 K) 34.9 ± 2.4.

In the case of `CCCO` [propan-1-ol] + CCCCn1cc[n+](C)c1.N#CN=C=[N-], the activity coefficient (318.15 K) worked out at 0.826 ± 0.053; the activity coefficient (328.15 K) was determined as 0.835 ± 0.054; the activity coefficient (338.15 K) was 0.844 ± 0.054; the activity coefficient (348.15 K) worked out at 0.853 ± 0.055; the activity coefficient (358.15 K) is 0.862 ± 0.055; the activity coefficient (368.15 K) is 0.871 ± 0.056.

For `CC(C)O` [propan-2-ol] + CCCCn1cc[n+](C)c1.N#CN=C=[N-], the activity coefficient by setting is: (318.15 K) 0.921 ± 0.058; (328.15 K) 0.93 ± 0.059; (338.15 K) 0.94 ± 0.059; (348.15 K) 0.948 ± 0.06; (358.15 K) 0.956 ± 0.06; (368.15 K) 0.963 ± 0.061.
